15 molecules from patent US7074789B2, “Kinase inhibitors” (Amgen Inc., priority 1999, dated 2006) can be followed below.

Holding throughout (format): biochemical
Assay [1] has as its target T1, PDGFRB (Homo sapiens, UniProt P09619).
T1 construct: Kinases are expressed as either kinase domains or full length constructs; made in house
The assay can be described thus: Kinase inhibition assay (33P transfer), PDGFRB. The note with it: read-out: PDGFRB-1.

The target in assay [2] is T2, Kdr (Homo sapiens, UniProt P35968).
T2 construct: Kinases are expressed as either kinase domains or full length constructs; made in house
The assay can be described thus: Kinase inhibition assay (33P transfer), Kdr. To be noted: read-out: KDR-1. In outline:
(§1)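 Steps: express kinase as GST or polyHistidine fusion in E. coli or High Five cells; optionally co-express or mix with regulatory polypeptides; incubate with 33P-ATP and plate-attached poly(Glu,Tyr) 4:1 or poly(Arg,Ser) 3:1; wash with 0.5% phosphoric acid; count by liquid scintillation.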

The target in assay [3] is T3, EGFR (Homo sapiens, UniProt P00533).
T3 construct: Kinases are expressed as either kinase domains or full length constructs; made in house
The assay can be described thus: Kinase inhibition assay (33P transfer), EGFR. The note with it: Table 2, kinase inhibition class; read-out: EGFR-1. The method in brief: (§2)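 Each enzyme, purified to near homogeneity by affinity chromatography, was incubated with ATP carrying 33P and a substrate polymer fixed to the plate. Unbound label was removed with dilute phosphoric acid (0.5%) before adding scintillant and counting. Potency is given as the compound level cutting label uptake by 50%.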

The target in assay [4] is T4, IGFR-1 (Homo sapiens, UniProt P08069).
T4 construct: Kinases are expressed as either kinase domains or full length constructs; made in house
The assay can be described thus: Kinase inhibition assay, IGFR-1 (Table 2). The note with it: Table 2, kinase inhibition class.

Assay [5] addresses T5, Itk (Homo sapiens, UniProt Q08881).
T5 construct: Kinases are expressed as either kinase domains or full length constructs; made in house
T5 sequence (Q08881 1-620): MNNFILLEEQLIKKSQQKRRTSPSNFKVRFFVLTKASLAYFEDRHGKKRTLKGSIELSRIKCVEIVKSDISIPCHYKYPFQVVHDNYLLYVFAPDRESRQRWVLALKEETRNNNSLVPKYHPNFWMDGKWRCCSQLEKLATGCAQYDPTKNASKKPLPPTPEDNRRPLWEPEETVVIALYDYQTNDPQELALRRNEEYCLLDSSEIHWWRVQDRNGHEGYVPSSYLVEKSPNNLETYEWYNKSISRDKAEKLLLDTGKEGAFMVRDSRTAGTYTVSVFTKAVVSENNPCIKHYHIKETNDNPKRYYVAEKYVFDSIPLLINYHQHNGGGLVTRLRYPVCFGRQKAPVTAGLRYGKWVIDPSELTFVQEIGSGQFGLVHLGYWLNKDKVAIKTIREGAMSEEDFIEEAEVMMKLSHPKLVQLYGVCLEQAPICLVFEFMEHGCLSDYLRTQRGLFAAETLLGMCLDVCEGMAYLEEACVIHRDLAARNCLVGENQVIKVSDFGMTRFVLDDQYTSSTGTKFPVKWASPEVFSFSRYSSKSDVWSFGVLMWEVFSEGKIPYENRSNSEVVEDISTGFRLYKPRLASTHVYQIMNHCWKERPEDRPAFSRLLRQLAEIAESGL
Briefly: Kinase inhibition assay (33P transfer), Itk. The note with it: read-out: Itk-1. The method in brief: as §2

Assay [6] addresses T6, ErbB2 (Homo sapiens, UniProt P04626).
T6 construct: Kinases are expressed as either kinase domains or full length constructs; made in house
Briefly: Kinase inhibition assay (33P transfer), ErbB2. To be noted: read-out: ErbB2-2. In outline:
as §2

Assay [7] addresses T7, Lck (Homo sapiens, UniProt P06239).
T7 construct: Kinases are expressed as either kinase domains or full length constructs; made in house
Briefly: Kinase inhibition assay (33P transfer), Lck. To be noted: read-out: Lck-1. The method in brief:
as §1

Assay [8] concerns the target T8, Zap-70 (Homo sapiens, UniProt P43403).
T8 construct: Kinases are expressed as either kinase domains or full length constructs; made in house
T8 sequence (P43403 1-619): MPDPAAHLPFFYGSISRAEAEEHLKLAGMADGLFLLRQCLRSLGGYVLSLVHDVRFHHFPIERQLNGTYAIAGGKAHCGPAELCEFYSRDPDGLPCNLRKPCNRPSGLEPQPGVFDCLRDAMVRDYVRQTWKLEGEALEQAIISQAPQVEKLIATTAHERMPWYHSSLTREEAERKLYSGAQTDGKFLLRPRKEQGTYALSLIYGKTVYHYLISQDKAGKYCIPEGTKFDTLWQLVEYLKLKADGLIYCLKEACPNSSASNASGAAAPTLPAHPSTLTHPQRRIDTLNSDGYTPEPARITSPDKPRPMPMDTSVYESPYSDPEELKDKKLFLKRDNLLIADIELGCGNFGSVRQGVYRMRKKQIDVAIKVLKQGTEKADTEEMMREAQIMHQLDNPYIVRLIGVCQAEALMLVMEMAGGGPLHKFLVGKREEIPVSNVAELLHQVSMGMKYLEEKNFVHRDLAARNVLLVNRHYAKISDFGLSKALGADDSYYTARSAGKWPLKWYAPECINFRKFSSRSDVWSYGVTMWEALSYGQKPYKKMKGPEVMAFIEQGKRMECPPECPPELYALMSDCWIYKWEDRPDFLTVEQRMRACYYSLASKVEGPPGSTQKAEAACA
Briefly: Kinase inhibition assay (33P transfer), Zap-70. To be noted: read-out: Zap-1. The method in brief: as §1

The target of assay [9] is T9, AKT (Homo sapiens, UniProt Q9Y243).
T9 construct: Kinases are expressed as either kinase domains or full length constructs; made in house
The assay can be described thus: Kinase inhibition assay (33P transfer), AKT. The note with it: Table 2, kinase inhibition class; read-out: AKT3-1. In outline: as §1

The target of assay [10] is T10, c-Met (Homo sapiens, UniProt P08581).
T10 construct: Kinases are expressed as either kinase domains or full length constructs; made in house
The assay can be described thus: Kinase inhibition assay (33P transfer), c-Met. To be noted: Table 2, kinase inhibition class; read-out: Met-1. In outline: as §2

T9 sequence (Q9Y243 whole entry, the tested form may be a part): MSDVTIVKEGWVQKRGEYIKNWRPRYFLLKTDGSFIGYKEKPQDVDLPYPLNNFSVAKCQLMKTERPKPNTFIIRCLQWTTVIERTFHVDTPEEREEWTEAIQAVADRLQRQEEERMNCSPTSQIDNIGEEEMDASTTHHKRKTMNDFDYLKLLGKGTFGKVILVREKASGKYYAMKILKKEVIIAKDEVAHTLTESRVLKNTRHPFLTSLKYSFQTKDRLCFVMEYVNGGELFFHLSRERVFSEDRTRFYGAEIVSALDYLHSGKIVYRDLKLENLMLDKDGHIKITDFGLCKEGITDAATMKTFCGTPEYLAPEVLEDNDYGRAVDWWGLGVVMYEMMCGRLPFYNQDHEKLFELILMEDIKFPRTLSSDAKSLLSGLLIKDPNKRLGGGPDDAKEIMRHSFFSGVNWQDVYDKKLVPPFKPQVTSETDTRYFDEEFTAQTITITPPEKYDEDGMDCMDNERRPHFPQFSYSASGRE
T7 sequence (P06239 whole entry, species assumed, the tested form may be a part): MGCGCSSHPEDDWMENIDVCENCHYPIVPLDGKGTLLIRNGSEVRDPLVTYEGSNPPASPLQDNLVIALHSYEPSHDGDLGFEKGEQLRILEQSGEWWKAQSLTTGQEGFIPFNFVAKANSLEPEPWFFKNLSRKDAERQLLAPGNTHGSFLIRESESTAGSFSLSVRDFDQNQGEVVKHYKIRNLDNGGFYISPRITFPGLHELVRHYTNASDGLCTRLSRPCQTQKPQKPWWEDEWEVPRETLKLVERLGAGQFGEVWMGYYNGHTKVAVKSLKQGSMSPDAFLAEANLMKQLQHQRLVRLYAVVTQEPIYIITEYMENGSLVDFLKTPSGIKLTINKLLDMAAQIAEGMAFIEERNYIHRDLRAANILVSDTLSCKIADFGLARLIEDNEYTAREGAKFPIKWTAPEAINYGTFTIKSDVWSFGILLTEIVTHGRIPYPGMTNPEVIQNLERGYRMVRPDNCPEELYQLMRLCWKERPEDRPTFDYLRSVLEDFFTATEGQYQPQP
T2 sequence (P35968 20-1356, species assumed): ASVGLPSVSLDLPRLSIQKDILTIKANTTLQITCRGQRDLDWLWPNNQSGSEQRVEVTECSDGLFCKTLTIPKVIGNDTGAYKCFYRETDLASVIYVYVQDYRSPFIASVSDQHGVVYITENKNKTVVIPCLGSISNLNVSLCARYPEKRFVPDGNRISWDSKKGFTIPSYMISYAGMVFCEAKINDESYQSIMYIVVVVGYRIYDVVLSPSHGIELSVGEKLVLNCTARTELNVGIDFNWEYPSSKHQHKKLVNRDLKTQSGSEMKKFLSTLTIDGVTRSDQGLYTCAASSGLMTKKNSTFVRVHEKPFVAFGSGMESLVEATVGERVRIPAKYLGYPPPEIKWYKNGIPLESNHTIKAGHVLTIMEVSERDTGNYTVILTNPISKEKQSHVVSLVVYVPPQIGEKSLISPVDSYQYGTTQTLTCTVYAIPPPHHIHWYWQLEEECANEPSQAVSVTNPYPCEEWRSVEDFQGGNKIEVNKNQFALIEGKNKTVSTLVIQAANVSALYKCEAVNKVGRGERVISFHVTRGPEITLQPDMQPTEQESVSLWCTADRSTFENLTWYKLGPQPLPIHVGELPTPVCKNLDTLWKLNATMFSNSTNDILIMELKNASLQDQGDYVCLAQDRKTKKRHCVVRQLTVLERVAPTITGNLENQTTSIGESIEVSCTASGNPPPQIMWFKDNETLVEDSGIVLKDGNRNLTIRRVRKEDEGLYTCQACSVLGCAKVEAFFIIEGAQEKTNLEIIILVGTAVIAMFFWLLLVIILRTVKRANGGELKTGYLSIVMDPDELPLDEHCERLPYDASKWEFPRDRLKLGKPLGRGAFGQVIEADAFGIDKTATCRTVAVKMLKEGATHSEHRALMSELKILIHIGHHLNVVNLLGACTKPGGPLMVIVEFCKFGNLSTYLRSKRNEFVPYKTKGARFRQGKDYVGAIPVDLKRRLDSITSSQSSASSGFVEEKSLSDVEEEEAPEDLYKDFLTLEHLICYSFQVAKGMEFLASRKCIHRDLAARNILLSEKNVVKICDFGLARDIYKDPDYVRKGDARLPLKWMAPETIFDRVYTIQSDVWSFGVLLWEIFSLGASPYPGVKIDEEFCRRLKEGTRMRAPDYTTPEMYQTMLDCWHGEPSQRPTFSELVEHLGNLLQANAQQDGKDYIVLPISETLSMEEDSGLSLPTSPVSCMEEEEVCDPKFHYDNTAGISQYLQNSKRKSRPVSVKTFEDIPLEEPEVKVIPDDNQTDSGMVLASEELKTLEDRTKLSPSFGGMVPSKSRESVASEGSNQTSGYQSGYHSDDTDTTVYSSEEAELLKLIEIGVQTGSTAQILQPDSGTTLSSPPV
T3 sequence (P00533 25-1210, species assumed): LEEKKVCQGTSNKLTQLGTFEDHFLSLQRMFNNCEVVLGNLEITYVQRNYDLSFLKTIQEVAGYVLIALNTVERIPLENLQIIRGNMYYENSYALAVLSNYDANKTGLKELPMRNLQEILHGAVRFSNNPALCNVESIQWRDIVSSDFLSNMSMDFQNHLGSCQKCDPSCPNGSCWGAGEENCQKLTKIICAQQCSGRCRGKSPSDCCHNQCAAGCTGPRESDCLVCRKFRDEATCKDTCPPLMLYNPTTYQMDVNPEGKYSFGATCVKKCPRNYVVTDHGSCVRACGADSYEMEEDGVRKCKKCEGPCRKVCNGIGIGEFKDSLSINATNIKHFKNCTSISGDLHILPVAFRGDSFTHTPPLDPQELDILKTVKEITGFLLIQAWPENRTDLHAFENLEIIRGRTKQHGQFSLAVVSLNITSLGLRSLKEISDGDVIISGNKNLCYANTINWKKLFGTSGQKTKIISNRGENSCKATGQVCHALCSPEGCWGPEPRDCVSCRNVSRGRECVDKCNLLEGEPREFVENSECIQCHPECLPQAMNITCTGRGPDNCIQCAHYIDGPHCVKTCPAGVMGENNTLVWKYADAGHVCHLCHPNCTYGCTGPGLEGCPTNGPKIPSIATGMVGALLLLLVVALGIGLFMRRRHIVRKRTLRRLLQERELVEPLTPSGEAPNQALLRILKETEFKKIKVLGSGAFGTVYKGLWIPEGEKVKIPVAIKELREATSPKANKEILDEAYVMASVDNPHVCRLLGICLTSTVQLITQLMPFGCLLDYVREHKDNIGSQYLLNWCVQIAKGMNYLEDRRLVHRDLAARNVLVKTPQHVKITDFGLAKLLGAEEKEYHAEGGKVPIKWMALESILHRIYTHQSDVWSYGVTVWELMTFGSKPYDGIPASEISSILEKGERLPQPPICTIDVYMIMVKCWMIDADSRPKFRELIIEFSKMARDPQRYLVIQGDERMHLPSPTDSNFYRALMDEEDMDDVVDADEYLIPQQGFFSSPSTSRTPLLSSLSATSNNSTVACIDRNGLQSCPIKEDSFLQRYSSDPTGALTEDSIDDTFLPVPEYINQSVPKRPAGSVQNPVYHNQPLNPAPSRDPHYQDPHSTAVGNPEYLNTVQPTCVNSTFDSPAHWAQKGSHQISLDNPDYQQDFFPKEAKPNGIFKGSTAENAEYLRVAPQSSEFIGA
T1 sequence (P09619 33-1106, species assumed): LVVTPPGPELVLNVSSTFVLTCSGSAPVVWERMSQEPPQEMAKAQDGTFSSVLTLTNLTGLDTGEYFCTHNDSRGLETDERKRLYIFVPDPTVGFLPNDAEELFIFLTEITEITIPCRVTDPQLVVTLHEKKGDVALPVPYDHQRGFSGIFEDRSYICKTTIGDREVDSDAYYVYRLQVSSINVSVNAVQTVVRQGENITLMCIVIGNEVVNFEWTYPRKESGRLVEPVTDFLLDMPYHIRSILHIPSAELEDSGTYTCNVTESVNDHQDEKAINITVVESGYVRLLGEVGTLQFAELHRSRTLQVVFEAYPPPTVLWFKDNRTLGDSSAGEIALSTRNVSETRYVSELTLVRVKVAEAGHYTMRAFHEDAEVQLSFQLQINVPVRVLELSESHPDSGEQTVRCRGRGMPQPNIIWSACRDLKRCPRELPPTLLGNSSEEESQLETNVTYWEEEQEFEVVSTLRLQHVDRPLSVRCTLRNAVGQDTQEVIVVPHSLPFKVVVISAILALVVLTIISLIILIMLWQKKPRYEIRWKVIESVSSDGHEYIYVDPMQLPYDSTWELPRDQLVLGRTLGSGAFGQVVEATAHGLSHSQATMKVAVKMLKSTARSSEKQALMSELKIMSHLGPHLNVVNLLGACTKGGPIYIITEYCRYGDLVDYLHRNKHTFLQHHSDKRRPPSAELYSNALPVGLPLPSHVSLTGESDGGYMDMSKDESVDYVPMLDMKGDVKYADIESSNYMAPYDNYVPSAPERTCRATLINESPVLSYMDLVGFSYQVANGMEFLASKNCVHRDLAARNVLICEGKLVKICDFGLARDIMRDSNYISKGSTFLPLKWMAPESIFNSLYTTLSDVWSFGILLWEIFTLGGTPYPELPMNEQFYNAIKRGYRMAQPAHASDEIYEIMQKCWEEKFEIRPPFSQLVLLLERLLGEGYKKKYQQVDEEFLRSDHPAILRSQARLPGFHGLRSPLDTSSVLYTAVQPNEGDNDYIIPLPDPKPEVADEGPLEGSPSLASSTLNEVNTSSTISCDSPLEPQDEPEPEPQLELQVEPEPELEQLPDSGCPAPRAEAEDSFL

For the molecule `COc1ccc(Nc2ncnc(N(C)c3ccc(Cl)c(Cl)c3)n2)cc1OC` [Compound 758], the IC50 was below 0.985 µM in assay [1]; 0.985 to 5.91 µM in [2]; below 0.985 µM in [3]; 5.91 to 8.61 µM in assay [4]; above 11.1 µM in assay [5]; below 0.985 µM in assay [6]. The IC50 in [7] was below 0.985 µM; in [8] it was above 11.1 µM; in assay [9], above 11.1 µM; in assay [10], below 0.985 µM.
Regarding `Cc1ccc2c(c1)CCCN2c1ncnc(NCC2CCCO2)n1` (stereo not drawn) [Compound 759], the IC50 in assay [1], in assay [2], in assay [3], in assay [4], in assay [5] and in [6] was above 13.8 µM throughout. The IC50 in assay [7], in assay [8], in assay [9] and in assay [10] was above 13.8 µM each time.
`CC(=O)Nc1ccc(Nc2ncnc(N3CCCc4cc(C)ccc43)n2)cc1` [Compound 760]: the IC50 in assay [1] is 1.07 to 6.41 µM; in [2] it was 1.07 to 6.41 µM; in assay [3], below 1.07 µM; in assay [4], above 12 µM; in assay [5], above 12 µM; in assay [6] it was 1.07 to 6.41 µM. Also, the IC50 was 1.07 to 6.41 µM in assay [7], above 12 µM in [8], above 12 µM in assay [9] and 1.07 to 6.41 µM in assay [10].
Consider `CCOC(=O)CNc1ncnc(N2CCCc3cc(C)ccc32)n1` [Compound 761], for which the IC50 in assay [1], in assay [2], in assay [3], in assay [4], in assay [5] and in [6] was above 13.7 µM throughout. The IC50 in assay [7], in assay [8], in assay [9] and in assay [10] was above 13.7 µM each time.
Take `COCCCNc1ncnc(N2CCCc3cc(C)ccc32)n1` [Compound 762]: the IC50 is above 14.4 µM in assay [1]; above 14.4 µM in assay [2]; 11.2 to 14.4 µM in assay [3]; above 14.4 µM in assay [4]; above 14.4 µM in [5]; above 14.4 µM in assay [6]. For the same molecule, the IC50 in [7], in assay [8], in assay [9] and in assay [10] was above 14.4 µM throughout.
`Cc1ccc2c(c1)CCCN2c1ncnc(Nc2ccc3c(c2)C(=O)OC3)n1` [Compound 763]: the IC50 in assay [1] is 6.43 to 9.37 µM; in assay [2] it was 1.07 to 6.43 µM; in assay [3], below 1.07 µM; in assay [4] it was above 12.1 µM; in assay [5], above 12.1 µM; in assay [6], 1.07 to 6.43 µM. Further, the IC50 is 6.43 to 9.37 µM in assay [7], above 12.1 µM in assay [8], above 12.1 µM in [9] and 1.07 to 6.43 µM in [10].
As for `CC(=O)N1CCc2cc(Nc3ncnc(N4CCCc5cc(C)ccc54)n3)ccc21` [Compound 764], the IC50 was below 0.999 µM in assay [1]; above 11.2 µM in assay [2]; below 0.999 µM in [3]; above 11.2 µM in assay [4]; above 11.2 µM in [5]; above 11.2 µM in assay [6]. The IC50 was above 11.2 µM in assay [7], above 11.2 µM in assay [8], above 11.2 µM in [9] and below 0.999 µM in assay [10].
Take `CCOC(=O)N1CCC(Nc2ncnc(N3CCCc4cc(C)ccc43)n2)CC1` [Compound 765]: the IC50 in [1], in assay [2], in assay [3], in assay [4], in [5] and in assay [6] was above 11.3 µM in each case. Besides, the IC50 in assay [7], in [8], in assay [9] and in [10] was above 11.3 µM each time.
In the case of `Cc1ccc2c(c1)CCCN2c1ncnc(Nc2cc[nH]n2)n1` [Compound 766], the IC50 in assay [1] was 1.3 to 7.81 µM; in assay [2], 1.3 to 7.81 µM; in assay [3], 1.3 to 7.81 µM; in assay [4], 1.3 to 7.81 µM; in assay [5] it was below 1.3 µM; in [6] it was 1.3 to 7.81 µM. Moreover, the IC50 in assay [7] is 1.3 to 7.81 µM; in [8], above 14.6 µM; in [9], above 14.6 µM; in assay [10], 1.3 to 7.81 µM.
Turning to `COC(=O)c1sccc1Nc1ncnc(N2CCCc3cc(C)ccc32)n1` [Compound 767], the IC50 in assay [1], in [2], in assay [3], in assay [4], in [5] and in assay [6] was above 11.8 µM each time. The IC50 in assay [7], in assay [8], in assay [9] and in assay [10] was above 11.8 µM each time.
For `Cc1ccc2c(c1)CCCN2c1ncnc(NCCc2c[nH]c3ccccc23)n1` [Compound 768], the IC50 in assay [1] is above 11.7 µM; in assay [2] it was 9.1 to 11.7 µM; in assay [3] it was above 11.7 µM; in assay [4], above 11.7 µM; in assay [5], above 11.7 µM; in assay [6] it was 9.1 to 11.7 µM. Besides, the IC50 was above 11.7 µM in assay [7], above 11.7 µM in [8], above 11.7 µM in [9] and 6.24 to 9.1 µM in assay [10].
In the case of `Cc1ccc2c(c1)CCCN2c1ncnc(NCc2ccccn2)n1` [Compound 769], the IC50 in assay [1], in [2], in assay [3], in [4], in assay [5] and in assay [6] was above 13.5 µM throughout. Further, the IC50 in assay [7], in assay [8], in assay [9] and in assay [10] was above 13.5 µM throughout.
Consider `Cc1ccc2c(c1)CCCN2c1ncnc(Nc2cccc(CO)c2)n1` [Compound 770], for which the IC50 is below 1.15 µM in assay [1]; 1.15 to 6.91 µM in assay [2]; below 1.15 µM in [3]; 10.1 to 13 µM in assay [4]; above 13 µM in assay [5]; below 1.15 µM in assay [6]. For the same molecule, the IC50 in [7] is below 1.15 µM; in assay [8] it was above 13 µM; in assay [9], above 13 µM; in assay [10], below 1.15 µM.
Turning to `COc1ccc(CCNc2ncnc(N3CCCc4cc(C)ccc43)n2)cc1OC` [Compound 771], the IC50 in [1] is above 11.1 µM; in assay [2] it was 5.92 to 8.63 µM; in [3], above 11.1 µM; in assay [4], above 11.1 µM; in [5] it was above 11.1 µM; in [6], above 11.1 µM. Moreover, the IC50 in [7], in [8], in assay [9] and in assay [10] was above 11.1 µM in each case.
In the case of `Cc1ccc2c(c1)CCCN2c1ncnc(NCCCn2ccnc2)n1` [Compound 772], the IC50 in assay [1] is 10 to 12.9 µM; in assay [2], above 12.9 µM; in assay [3], above 12.9 µM; in assay [4], above 12.9 µM; in assay [5], 10 to 12.9 µM; in assay [6], above 12.9 µM. In addition, the IC50 in assay [7], in [8], in assay [9] and in assay [10] was above 12.9 µM each time.
